According to EP2457906A1, “Derivatives of 1,2,4-benzothiadiazine dioxide, their preparation and use as allosteric modulators of the AMPA receptor” (Universita'del Salento, priority 2010, dated 2012):

Tested on: AMPA-kainate receptors
Experiment: Patch-clamp (whole-cell voltage-clamp) recording of kainate-evoked currents in primary cultures of cortical neurons
Type: cell-based
Details: rat cortical neurons; for type of allosteric modulation of the AMPA receptor: effect on current induced by Kainate; for Variation in the current induced by Kainate, %: compound at 10 µM, mean ± SE (n = 4-6)
Experimental: The pharmacological studies were conducted using the patch-clamp technique on primary cultures of cortical neurons.
The primary neuronal cultures were obtained from 1-day-old Sprague-Dawley rats. The cells were dispersed with trypsin (0.24 mg/ml) and plated out at a density of 10^6 cells/ml on 35mm Petri dishes pretreated with poly-L-lysine (10 µg/ml). The cells were cultivated in Eagle's Basal Medium with the addition of 10% foetal calf serum, 2 mM glutamine and 100 µg/ml gentamicin, and stored in an incubator at 37°C in 5% carbon dioxide.
To prevent astroglial proliferation, cytosine arabinofuranoside was added (1-10 µM) to the cultures 24h after plating out.
The patch-clamp recordings were performed on a single cell after 7 days in culture using the voltage-clamp technique in whole-cell configuration (Hamill OP, Marty A, Neher E, Sakmann B, Sigworth FJ (1981): Improved patchclamp techniques for high-resolution current recording from cell and cell-free membrane patches. Pflugers Arch, 85-100). […] The currents were amplified with an Axopatch 1 D amplifier (Axon Instruments, Foster City, CA), filtered at 5 kHz and digitised at 10 kHz using the pClamp software (Axon Instruments, Foster City, CA).
The intracellular solutions contained: KCI 140mM, MgCl2 3mM, EGTA 5mM, HEPES 5mM, ATP-Na 2mM, and were brought to pH 7.3 with KOH. The cells were continuously perfused with an external solution containing: NaCl 145mM, KCI 5mM, CaCl2 1mM, HEPES 5mM, glucose 5mM, saccharose 20Mm, and brought to pH 7.4 with NaOH.
The compounds tested were dissolved in DMSO and diluted to the final concentration in the extracellular solution. (The DMSO in the final concentration is less than 0.1%.) The kainate (SIGMA) was dissolved in the extracellular solution. All of the substances were applied directly by gravity through a "Y-tube" perfusion system (Murase K, Ryu PD, Randic M (1989). Excitatory and inhibitory amino acids and peptide-induced responses in acutely isolated rat spinal dorsal horn neurons. Neurosci Lett 103, 56-63).
The electrophysiological data was analysed using the software pCLAMP 6.3 (Axon Instruments).
The compounds according to the invention have proven to be potent allosteric modulators of the response mediated by AMPA-kainate receptors. […] The values are expressed as the mean ± SE (n = 4-6).

CC1Nc2c(-c3ccoc3)cc(Cl)cc2S(=O)(=O)N1 (stereo not drawn) [(1), 7-chloro-5-(3-furyl)-3-methyl-3,4-dihydro-2H-1,2,4-benzothiadiazine 1,1-dioxide]
EC50 (potentiation of currents induced by Kainate, calculated from dose/response data of Figure 1): 1.1 µM | type of allosteric modulation of the AMPA receptor (10 µM): positive allosteric modulator | increase of the current induced by Kainate (10 µM, text statement on the data of Table 1): around 360 times | EC2X (i.e. the concentration at which the AMPA receptor currents are potentiated 2 times) (calculated from dose/response data of Figure 1): 500 nM | Variation in the current induced by Kainate, %: 358±80%

CC1Nc2c(-c3ccsc3)cc(Cl)cc2S(=O)(=O)N1 (stereo not drawn) [(2), 7-chloro-3-methyl-5-thien-3-yl-3,4-dihydro-2H-1,2,4-benzothiadiazine 1,1-dioxide]
type of allosteric modulation of the AMPA receptor (10 µM): positive allosteric modulator | Variation in the current induced by Kainate, %: 214±41%

CC1Nc2c(-c3ccco3)cc(Cl)cc2S(=O)(=O)N1 (stereo not drawn) [(3), 7-chloro-5-(2-furyl)-3-methyl-3,4-dihydro-2H-1,2,4-benzothiadiazine 1,1-dioxide]
type of allosteric modulation of the AMPA receptor (10 µM): positive allosteric modulator | Variation in the current induced by Kainate, %: 80±16%

CCC1Nc2c(-c3ccco3)cc(Cl)cc2S(=O)(=O)N1 (stereo not drawn) [(4), 7-chloro-5-(2-furyl)-3-ethyl-3,4-dihydro-2H-1,2,4-benzothiadiazine 1,1-dioxide]
type of allosteric modulation of the AMPA receptor (10 µM): negative allosteric modulators | Variation in the current induced by Kainate, %: -32±12%

O=S1(=O)NCNc2c(-c3ccco3)cc(Cl)cc21 [(5), 7-chloro-5-(2-furyl)-3,4-dihydro-2H-1,2,4-benzothiadiazine 1,1-dioxide]
type of allosteric modulation of the AMPA receptor (10 µM): positive allosteric modulator | Variation in the current induced by Kainate, %: 20±5%

CC1=Nc2c(-c3ccco3)cc(Cl)cc2S(=O)(=O)N1 [(6), 7-chloro-5-(2-furyl)-3-methyl-1,2,4-benzothiadiazine 1,1-dioxide]
type of allosteric modulation of the AMPA receptor (10 µM): negative allosteric modulators | Variation in the current induced by Kainate, %: -21±9%
